In brackets after ≈: the same amount, converted by molar mass.
Experiments:
[1] = test system: Staphylococcus aureus Mu50; experiment: In vitro activity assay, minimum inhibitory concentration (MIC), cup-plate method; type: cell-based; details: strain Mu50, trypticase soy broth, read-out: MIC values, Staphylococcus aureus Mu50
Method: (§1) In vitro activity assay was performed according to Microbiological Identification of Antibiotics, Appendix XIA, Volume II, Chinese Pharmacopoeia 2010. Vancomycin-sensitive Staphylococcus aureus strains (Newman and Mu 50) were selected as the test strains, and trypticase soy broth was selected as the culture medium.

[2] = test system: Staphylococcus aureus Newman; experiment: as above; type: cell-based; details: strain Newman, trypticase soy broth, read-out: MIC values, Staphylococcus aureus Newman
Method: as §1

physchem = details: 25 °C, water, thermodynamic from solid

| MIC [1] [µg/mL] | MIC [2] [µg/mL] | solubility at 30 min (physchem) [mg/mL] | SMILES |
| --- | --- | --- | --- |
| 2 (≈ 1.14 µM) | < 0.125 | 50 to 60 (≈ 28500 to 34200 µM) | CN[C@H](CC(C)C)C(=O)N[C@@H]1C(=O)NC(CC(N)=O)C(=O)NC2C(=O)NC3C(=O)N[C@H](C(=O)NC(C(=O)O)c4cc(O)cc(O)c4-c4cc3ccc4O)[C@H](O)c3ccc(c(Cl)c3)Oc3cc2cc(c3OC2OC(CO)C(O)C(O)C2OC2CC(C)(NCC(OCc3ccc(-c4ccc(Cl)cc4)cc3)C(=O)OC)C(O)C(C)O2)Oc2ccc(cc2Cl)C1O (stereo partly drawn) [Compound V13] |
| 8 (≈ 4.83 µM) | 2 (≈ 1.21 µM) | < 5 | CN[C@H](CC(C)C)C(=O)N[C@@H]1C(=O)NC(CC(N)=O)C(=O)NC2C(=O)NC3C(=O)N[C@H](C(=O)NC(C(=O)O)c4cc(O)cc(O)c4-c4cc3ccc4O)[C@H](O)c3ccc(c(Cl)c3)Oc3cc2cc(c3OC2OC(CO)C(O)C(O)C2OC2CC(C)(NCC(OCc3ccc(C)cc3)C(=O)OC)C(O)C(C)O2)Oc2ccc(cc2Cl)C1O (stereo partly drawn) [Compound V22] |
| 32 (≈ 19.8 µM) | 8 (≈ 4.96 µM) | 20 (≈ 12400 µM) | CC(C)C[C@@H](N)C(=O)N[C@@H]1C(=O)NC(CC(N)=O)C(=O)NC2C(=O)NC3C(=O)N[C@H](C(=O)NC(C(=O)O)c4cc(O)cc(O)c4-c4cc3ccc4O)[C@H](O)c3ccc(c(Cl)c3)Oc3cc2cc(c3OC2OC(CO)C(O)C(O)C2OC2CC(C)(NCC(OCc3ccccc3)C(=O)O)C(O)C(C)O2)Oc2ccc(cc2Cl)C1O (stereo partly drawn) [Compound V51] |
| 8 (≈ 4.81 µM) | 4 (≈ 2.4 µM) | 5 to 10 (≈ 3010 to 6010 µM) | CCCCCCCCCCOC(CNC1(C)CC(OC2C(Oc3c4cc5cc3Oc3ccc(cc3Cl)[C@@H](O)[C@@H]3NC(=O)C(NC(=O)C5NC(=O)C(CC(N)=O)NC(=O)[C@@H](NC(=O)[C@H](N)CC(C)C)C(O)c5ccc(c(Cl)c5)O4)c4ccc(O)c(c4)-c4c(O)cc(O)cc4C(C(=O)O)NC3=O)OC(CO)C(O)C2O)OC(C)C1O)C(=O)O (stereo partly drawn) [Compound V68] |
| 2 (≈ 1.07 µM) | < 0.125 | 5 to 20 (≈ 2680 to 10700 µM) | CC(C)C[C@@H](N)C(=O)N[C@@H]1C(=O)NC(CC(N)=O)C(=O)NC2C(=O)NC3C(=O)N[C@H](C(=O)NC(C(=O)O)c4cc(O)cc(O)c4-c4cc3ccc4O)[C@H](OC3CC(C)(N)C(O)C(C)O3)c3ccc(c(Cl)c3)Oc3cc2cc(c3OC2OC(CO)C(O)C(O)C2OC2CC(C)(NCC(OCc3ccc(-c4ccc(Cl)cc4)cc3)C(=O)O)C(O)C(C)O2)Oc2ccc(cc2Cl)C1O (stereo partly drawn) [Compound V66] |
| 2 (≈ 1.06 µM) | < 0.125 | 5 to 20 (≈ 2660 to 10600 µM) | CN[C@H](CC(C)C)C(=O)NC1C(=O)N[C@@H](CC(N)=O)C(=O)N[C@H]2C(=O)NC3C(=O)N[C@H](C(=O)N[C@@H](C(=O)O)c4cc(O)cc(O)c4-c4cc3ccc4O)[C@H](OC3CC(C)(N)C(O)C(C)O3)c3ccc(c(Cl)c3)Oc3cc2cc(c3OC2OC(CO)C(O)C(O)C2OC2CC(C)(NCC(OCc3cccc(-c4ccc(Cl)cc4)c3)C(=O)O)C(O)C(C)O2)Oc2ccc(cc2Cl)[C@H]1O (stereo partly drawn) [Compound V65] |
| 2 (≈ 1.06 µM) | < 0.125 | 5 to 20 (≈ 2660 to 10600 µM) | CN[C@H](CC(C)C)C(=O)N[C@@H]1C(=O)NC(CC(N)=O)C(=O)NC2C(=O)NC3C(=O)N[C@H](C(=O)NC(C(=O)O)c4cc(O)cc(O)c4-c4cc3ccc4O)[C@H](OC3CC(C)(N)C(O)C(C)O3)c3ccc(c(Cl)c3)Oc3cc2cc(c3OC2OC(CO)C(O)C(O)C2OC2CC(C)(NCC(OCc3ccc(-c4ccccc4Cl)cc3)C(=O)O)C(O)C(C)O2)Oc2ccc(cc2Cl)C1O (stereo partly drawn) [Compound V64] |
| 8 (≈ 4.98 µM) | 2 (≈ 1.24 µM) | > 20 | CCCCCCOC(CNC1(C)CC(OC2C(Oc3c4cc5cc3Oc3ccc(cc3Cl)[C@@H](O)[C@@H]3NC(=O)C(NC(=O)[C@@H]5NC(=O)[C@H](CC(N)=O)NC(=O)C(NC(=O)[C@H](N)CC(C)C)[C@H](O)c5ccc(c(Cl)c5)O4)c4ccc(O)c(c4)-c4c(O)cc(O)cc4[C@H](C(=O)O)NC3=O)OC(CO)C(O)C2O)OC(C)C1O)C(=O)O (stereo partly drawn) [Compound V60] |
| 16 (≈ 10.1 µM) | 4 (≈ 2.53 µM) | 4 (≈ 2530 µM) | CCCOC(CNC1(C)CC(OC2C(Oc3c4cc5cc3Oc3ccc(cc3Cl)[C@@H](O)[C@@H]3NC(=O)C(NC(=O)[C@@H]5NC(=O)[C@H](CC(N)=O)NC(=O)C(NC(=O)[C@@H](CC(C)C)NC)[C@H](O)c5ccc(c(Cl)c5)O4)c4ccc(O)c(c4)-c4c(O)cc(O)cc4[C@H](C(=O)O)NC3=O)OC(CO)C(O)C2O)OC(C)C1O)C(=O)O (stereo partly drawn) [Compound V30] |
| 2 (≈ 1.19 µM) | < 0.125 | < 5 | CN[C@H](CC(C)C)C(=O)N[C@@H]1C(=O)NC(CC(N)=O)C(=O)NC2C(=O)NC3C(=O)N[C@H](C(=O)NC(C(=O)O)c4cc(O)cc(O)c4-c4cc3ccc4O)[C@H](O)c3ccc(c(Cl)c3)Oc3cc2cc(c3OC2OC(CO)C(O)C(O)C2OC2CC(C)(NCC(OCc3ccc(Cl)cc3)C(=O)OC)C(O)C(C)O2)Oc2ccc(cc2Cl)C1O (stereo partly drawn) [Compound V20] |
| 8 (≈ 4.89 µM) | 2 (≈ 1.22 µM) | < 1 | CCCCCCOC(CNC1(C)CC(OC2C(Oc3c4cc5cc3Oc3ccc(cc3Cl)[C@@H](O)[C@@H]3NC(=O)C(NC(=O)C5NC(=O)C(CC(N)=O)NC(=O)[C@@H](NC(=O)[C@@H](CC(C)C)NC)C(O)c5ccc(c(Cl)c5)O4)c4ccc(O)c(c4)-c4c(O)cc(O)cc4C(C(=O)O)NC3=O)OC(CO)C(O)C2O)OC(C)C1O)C(=O)OC (stereo partly drawn) [Compound V31] |
| 8 (≈ 4.93 µM) | 2 (≈ 1.23 µM) | < 10 | CCCCCCOC(CNC1(C)CC(OC2C(Oc3c4cc5cc3Oc3ccc(cc3Cl)[C@@H](O)[C@@H]3NC(=O)C(NC(=O)C5NC(=O)C(CC(N)=O)NC(=O)[C@@H](NC(=O)[C@H](N)CC(C)C)C(O)c5ccc(c(Cl)c5)O4)c4ccc(O)c(c4)-c4c(O)cc(O)cc4C(C(=O)O)NC3=O)OC(CO)C(O)C2O)OC(C)C1O)C(=O)OC (stereo partly drawn) [Compound V59] |
| 16 (≈ 10.2 µM) | 4 (≈ 2.56 µM) | > 60 | CCCOC(CNC1(C)CC(OC2C(Oc3c4cc5cc3Oc3ccc(cc3Cl)[C@@H](O)[C@@H]3NC(=O)C(NC(=O)C5NC(=O)C(CC(N)=O)NC(=O)[C@@H](NC(=O)[C@H](N)CC(C)C)C(O)c5ccc(c(Cl)c5)O4)c4ccc(O)c(c4)-c4c(O)cc(O)cc4C(C(=O)O)NC3=O)OC(CO)C(O)C2O)OC(C)C1O)C(=O)O (stereo partly drawn) [Compound V57] |
| > 128 | 64 (≈ 40.2 µM) | 50 to 60 (≈ 31400 to 37700 µM) | CCCCOC(CNC1(C)CC(OC2C(Oc3c4cc5cc3Oc3ccc(cc3Cl)[C@@H](O)[C@@H]3NC(=O)C(NC(=O)[C@@H]5NC(=O)[C@H](CC(N)=O)NC(=O)C(NC(=O)[C@@H](CC(C)C)NC)[C@H](O)c5ccc(c(Cl)c5)O4)c4ccc(O)c(c4)-c4c(O)cc(O)cc4[C@H](C(=O)O)NC3=O)OC(CO)C(O)C2O)OC(C)C1O)C(=O)O (stereo partly drawn) [Compound V19] |
| 8 (≈ 4.52 µM) | 4 (≈ 2.26 µM) | 20 (≈ 11300 µM) | CN[C@H](CC(C)C)C(=O)NC1C(=O)N[C@@H](CC(N)=O)C(=O)N[C@H]2C(=O)NC3C(=O)N[C@H](C(=O)N[C@@H](C(=O)O)c4cc(O)cc(O)c4-c4cc3ccc4O)[C@H](OC3CC(C)(N)C(O)C(C)O3)c3ccc(c(Cl)c3)Oc3cc2cc(c3OC2OC(CO)C(O)C(O)C2OC2CC(C)(NCC(OCc3ccccc3)C(=O)O)C(O)C(C)O2)Oc2ccc(cc2Cl)[C@H]1O (stereo partly drawn) [Compound V61] |
| 8 (≈ 4.7 µM) | 4 (≈ 2.35 µM) | > 10 | CN[C@H](CC(C)C)C(=O)NC1C(=O)N[C@@H](CC(N)=O)C(=O)N[C@H]2C(=O)NC3C(=O)N[C@H](C(=O)N[C@@H](C(=O)O)c4cc(O)cc(O)c4-c4cc3ccc4O)[C@H](O)c3ccc(c(Cl)c3)Oc3cc2cc(c3OC2OC(CO)C(O)C(O)C2OC2CC(C)(NCC(OCc3ccc(-c4ccccc4)cc3)C(=O)O)C(O)C(C)O2)Oc2ccc(cc2Cl)[C@H]1O (stereo partly drawn) [Compound V24] |
| > 128 | 64 (≈ 40.5 µM) | 50 to 60 (≈ 31700 to 38000 µM) | CCCCOC(CNC1(C)CC(OC2C(Oc3c4cc5cc3Oc3ccc(cc3Cl)[C@@H](O)[C@@H]3NC(=O)C(NC(=O)C5NC(=O)C(CC(N)=O)NC(=O)[C@@H](NC(=O)[C@H](N)CC(C)C)C(O)c5ccc(c(Cl)c5)O4)c4ccc(O)c(c4)-c4c(O)cc(O)cc4C(C(=O)O)NC3=O)OC(CO)C(O)C2O)OC(C)C1O)C(=O)O (stereo partly drawn) [Compound V58] |
| 8 (≈ 4.66 µM) | 4 (≈ 2.33 µM) | < 5 | CN[C@H](CC(C)C)C(=O)N[C@@H]1C(=O)NC(CC(N)=O)C(=O)NC2C(=O)NC3C(=O)N[C@H](C(=O)NC(C(=O)O)c4cc(O)cc(O)c4-c4cc3ccc4O)[C@H](O)c3ccc(c(Cl)c3)Oc3cc2cc(c3OC2OC(CO)C(O)C(O)C2OC2CC(C)(NCC(OCc3ccc(-c4ccccc4)cc3)C(=O)OC)C(O)C(C)O2)Oc2ccc(cc2Cl)C1O (stereo partly drawn) [Compound V25] |
| 2 (≈ 1.15 µM) | < 0.125 | ≥ 60 | CN[C@H](CC(C)C)C(=O)NC1C(=O)N[C@@H](CC(N)=O)C(=O)N[C@H]2C(=O)NC3C(=O)N[C@H](C(=O)N[C@@H](C(=O)O)c4cc(O)cc(O)c4-c4cc3ccc4O)[C@H](O)c3ccc(c(Cl)c3)Oc3cc2cc(c3OC2OC(CO)C(O)C(O)C2OC2CC(C)(NCC(OCc3ccc(-c4ccc(Cl)cc4)cc3)C(=O)O)C(O)C(C)O2)Oc2ccc(cc2Cl)[C@H]1O (stereo partly drawn) [Compound V15] |
| 2 (≈ 1.2 µM) | < 0.125 | 20 (≈ 12000 µM) | COC(=O)C(CNC1(C)CC(OC2C(Oc3c4cc5cc3Oc3ccc(cc3Cl)[C@@H](O)[C@@H]3NC(=O)C(NC(=O)C5NC(=O)C(CC(N)=O)NC(=O)[C@@H](NC(=O)[C@H](N)CC(C)C)C(O)c5ccc(c(Cl)c5)O4)c4ccc(O)c(c4)-c4c(O)cc(O)cc4C(C(=O)O)NC3=O)OC(CO)C(O)C2O)OC(C)C1O)OCc1ccc(Cl)cc1 (stereo partly drawn) [Compound V52] |
| 64 (≈ 39.8 µM) | 16 (≈ 9.95 µM) | ≥ 60 | CCCCOC(CNC1(C)CC(OC2C(Oc3c4cc5cc3Oc3ccc(cc3Cl)[C@@H](O)[C@@H]3NC(=O)C(NC(=O)C5NC(=O)C(CC(N)=O)NC(=O)[C@@H](NC(=O)[C@@H](CC(C)C)NC)C(O)c5ccc(c(Cl)c5)O4)c4ccc(O)c(c4)-c4c(O)cc(O)cc4C(C(=O)O)NC3=O)OC(CO)C(O)C2O)OC(C)C1O)C(=O)OC (stereo partly drawn) [Compound V16] |

Reference: patent US9828413B2, “Vancomycin derivative, and preparation method and application thereof” (ACESYS PHARMA INC., priority 2013, dated 2017)
